Measured values reported in PubChem BioAssay (NCI).
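These data come from cells grown in 96-well plates and exposed to compound for 48 hours at five concentrations. GI50: concentration for 50% inhibition of growth. Definition used: TGI = concentration required for complete inhibition of growth.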

How the values were obtained:
Assay in all cases: NCI tumour cell line growth inhibition, 48 h
CAKI-1 renal = test system: CAKI-1 renal
M14 melanoma = test system: M14 melanoma
BT-549 breast = test system: BT-549 breast
786-0 renal = test system: 786-0 renal
NCI/ADR-RES ovarian = test system: NCI/ADR-RES ovarian
NCI-H226 lung = test system: NCI-H226 lung
UO-31 renal = test system: UO-31 renal
MDA-MB-435 = test system: MDA-MB-435

| SMILES | GI50 (CAKI-1 renal) [µM] | TGI (CAKI-1 renal) [µM] | GI50 (M14 melanoma) [µM] | TGI (M14 melanoma) [µM] | GI50 (BT-549 breast) [µM] | TGI (BT-549 breast) [µM] | GI50 (786-0 renal) [µM] | TGI (786-0 renal) [µM] | GI50 (NCI/ADR-RES ovarian) [µM] | TGI (NCI/ADR-RES ovarian) [µM] | GI50 (NCI-H226 lung) [µM] | TGI (NCI-H226 lung) [µM] | GI50 (UO-31 renal) [µM] | TGI (UO-31 renal) [µM] | GI50 (MDA-MB-435) [µM] | TGI (MDA-MB-435) [µM] |
| --- | --- | --- | --- | --- | --- | --- | --- | --- | --- | --- | --- | --- | --- | --- | --- | --- |
| CSc1ccc(C2=NN(C(=O)c3ccc(N)cc3)C(c3ccc(F)cc3)C2)cc1 (centres undefined) | 15.4 | 37.4 | 4.24 | 15.1 | 12.3 | 28.1 | 13.5 | 27.1 | 16.1 | 38.5 | 11 | 29.6 | 10.6 | 24 | 6.55 | 23.6 |
| O=C1c2cccc3cc([N+](=O)[O-])cc(c23)C(=O)N1O |  | > 100 |  | > 100 |  | > 100 |  | > 100 |  | > 100 |  | > 100 |  | > 100 |  | > 100 |
| C=C1CO[C@@H]2C[C@@H]1CC/C(C)=C/CC/C(C)=C/CC[C@@]2(C)O | 20.3 | 41.8 | 17.9 | 32.9 | 24.6 | 51.5 | 17.5 | 32.9 | 18.5 | 36 |  |  | 17.1 | 36.5 | 20.9 | 42.2 |
| CCCCCc1c(C)[nH]c(/C=c2\[nH]/c(=C3/C=c4ccccc4=N3)cc2OC)c1C | 0.0425 | 1.56 | 0.0295 | 0.375 | 0.08 | 2.14 | 0.049 | 0.242 | 0.17 | 3.72 | 0.0777 | 3.95 | 0.0882 | 0.329 | 0.0455 | 1.16 |
| COc1ccc(C2C3=C(COC3=O)N(CCO)c3cc4c(cc32)OCCO4)cc1OC (centres undefined) | 4.03 | > 50 | 1.94 | > 30.7 | 5.06 | > 47.9 | 2.48 | > 50 | 11.4 | > 50 | > 50 | > 50 | 4.09 | > 50 | 0.255 | 1.78 |
| Cc1cc2nc3c4ccccc4n(CCN(C)C)c3nc2cc1C | 0.982 | 12.2 | 1.51 | 3.36 | 2.07 | 6.25 | 1.97 | 12.2 | 1.39 | 12.7 | 2.01 | 6.99 | 0.726 | 14.5 | 1.61 | 3.47 |
| CCOc1cc(/C=N\NC(=O)N/N=C/c2ccc(O)c(OCC)c2)ccc1O | 3.06 | > 100 | 1.63 | > 100 | 24.5 | > 100 | 7.68 | > 100 | 3.47 | > 100 | > 100 | > 100 | 8.47 | > 100 |  |  |
| CC1(C)CC2CC(C)(CN2c2ncnc3ccc(Br)cc23)C1 (centres undefined) | 10.2 | 22 | 11 | 22.9 |  |  | 12.8 | 25.4 | 12.8 | 25.4 | 3.32 | 16.2 | 14 | 56.1 | 3.98 | 27.7 |
| N#Cc1c(Oc2ccc(F)c(NC(=O)Cc3cccc(C(F)(F)F)c3)c2)ccc2nc(NC(=O)C3CC3)sc12 | 0.744 | > 100 | 0.0275 | 2.95 | 2.71 | > 100 | 1.33 | > 100 | 1.28 | > 100 | 0.838 | > 100 | 0.553 | > 24.2 | 0.137 | > 100 |
| CNCCOc1nc2c3cnccc3cc(-c3cc(OC)c(OC)c(OC)c3)c2c2ccncc12 | 0.039 | 0.292 | 0.0233 | 0.147 | 0.103 | 0.613 | 0.0194 | 0.175 | 0.344 | 2.09 | 0.054 | 0.37 | 0.0302 | 0.156 | 0.115 | 0.327 |
| CC[C@H](C)[C@H](NC(=O)C12CC(NC(C)=O)(C1)C2)C(=O)N(C)[C@H](C[C@@H](OC(C)=O)c1nc(C(=O)N[C@@H](Cc2ccccc2)C[C@H](C)C(=O)OC)cs1)C(C)C | 11.2 | > 16.7 | 0.13 | 1.88 | 0.0824 | 3.41 | 0.395 | > 16.7 | > 16.7 | > 16.7 | > 7.53 | > 16.7 | > 8.2 | > 16.7 | 0.033 | 0.501 |
| Cc1ccc(-c2cc(/C=N/O)on2)cc1 | 43.9 | > 100 | 65.4 | > 100 | 49.5 | > 100 | 50.4 | > 100 | 45.4 | > 100 | 36.2 | > 100 | 36.4 | > 100 | 52.1 | > 100 |
| OC(c1ccccc1)c1c(-c2ccccc2)oc(-c2ccccc2)c1C(O)c1ccccc1 (centres undefined) |  | 30.4 |  | 21.9 |  |  |  | 21 |  | 24.9 |  | 21.9 |  | 25 |  | 21.1 |
| CN1CCN(c2ccc3nc4c(nc3c2C(F)(F)F)C(=O)c2ncccc2C4=O)CC1 | 1.2 | 2.75 | 1.32 | 2.86 | 1.58 | 3.07 | 2.02 | 4.9 | 2.33 | 6.94 | 2.13 | 4.74 | 1.33 | 2.84 | 0.178 | 0.344 |
| Cc1cc2c(C(C)C)c(O)c(O)c(C=O)c2c(O)c1-c1c(C)cc2c(C(C)C)c(O)c(O)c(C=O)c2c1O (tested in a mixture with another compound) | 0.966 | 4.81 | 1.5 | 3.61 | 1.26 | 3.76 | 0.819 | 3.29 | 0.825 | 2.56 | 1.39 | 4.95 | 1.64 | 4.56 | 1.86 | 5.19 |
| COc1ccc(-c2cncn2-c2cc(OC)c(OC)c(OC)c2)cc1F | < 0.0197 | > 24.4 | < 0.01 | 0.141 | < 0.0291 | > 71.6 | < 0.0214 | > 49.2 | 0.0108 | > 100 | 21.5 | > 100 | 0.0717 | 64.8 |  |  |
| C=C(C)[C@@H]1CC[C@]2(C)[C@H](C=CC3=C4C[C@@](C)(CO)CC[C@]4(C)CC[C@]32C)[C@@]1(C)CCCN | 1.52 | 2.85 | 1.69 | 3.34 | 1.63 | 3.07 | 1.68 | 3.44 | 1.74 | 3.37 |  |  | 1.34 | 2.65 | 1.78 | 3.2 |
| COc1cc(C2C(C#N)=C(N)Oc3cc4c(cc32)OCO4)cc2c1OCO2 (centres undefined) | 0.382 | > 100 | 0.418 | > 100 | 1.8 | 29.5 | 0.597 | > 90.9 | 0.103 | 0.553 | 0.273 | 4.59 | 0.653 | > 100 |  |  |
| O=C(Nc1ccc(S(=O)(=O)NC2CCCCCC2)cc1)C(c1ccccc1)S(=O)(=O)c1ccc(F)cc1 (centres undefined) |  |  | 0.514 | 2.55 | 0.348 | 1.61 | 0.448 | 2.68 | 1.24 | 4.66 | 0.39 | 3.43 | 0.202 | 3.52 | 0.313 | 1.43 |
| c1cnc2c(c1)Nc1cnncc1S2 |  | > 100 |  | > 100 |  |  |  | > 100 |  | > 100 |  | > 100 |  | > 100 |  | > 100 |
| Cc1sc(/N=C2/NC(=O)CS2)nc1-c1nc(/N=C2/NC(=O)CS2)sc1C | > 50 | > 50 |  |  | > 50 | > 50 | > 50 | > 50 | 21.2 | > 50 | > 50 | > 50 | > 50 | > 50 | > 50 | > 50 |
| Oc1[nH]c2ccc(Cl)cc2c1/C=c1/ccc2c(c1)N=C(c1cc(F)cc(F)c1)N=2 | 5.1 | > 100 | 2.18 | 5.66 | 2.09 | 7.59 | 3.66 | > 100 | 2.32 | 5.87 | > 100 | > 100 | 87.3 | > 100 |  |  |
| COc1cc2c3c(c1O)C1(C=CC(=O)C=C1)CC3N(C)CC2 (centres undefined) |  | 35.5 |  | 24.5 |  | 30.6 |  | 15.6 |  | 11 |  | > 100 |  |  |  | 23 |
| COc1cccc(Nc2nccc(Nc3ccc4[nH]ncc4c3)n2)c1 | 0.993 | 2.51 | 1.35 | 2.81 | 1.67 | 3.71 | 1.46 | 2.91 | 1.54 | 4.36 | 1.82 | 4.46 |  |  | 1.49 | 3.18 |
